According to the NIST ThermoML archive (doi:10.1016/j.jct.2016.08.008):
Numbers after ± are expanded uncertainties.

Test: activity coefficient (dimensionless); of the first substance listed, at infinite dilution; xn = mol fraction of the nth substance listed
Conditions: 101.33 kPa, Liquid, Chromatography, x1 = 0

Row | Structure (SMILES) | activity coefficient (318.15 K) | activity coefficient (328.15 K) | activity coefficient (338.15 K) | activity coefficient (348.15 K) | activity coefficient (358.15 K) | activity coefficient (368.15 K)
1 | Cc1ccccc1C [1,2-dimethylbenzene] + CCCCCCCCCCCCn1cc[n+](C)c1.O=S(=O)([N-]S(=O)(=O)C(F)(F)F)C(F)(F)F | 0.812 ± 0.053 | 0.851 ± 0.055 | 0.892 ± 0.057 | 0.93 ± 0.06 | 0.968 ± 0.061 | 1.01 ± 0.06
2 | Cc1cccc(C)c1 [1,3-dimethylbenzene] + CCCCCCCCCCCCn1cc[n+](C)c1.O=S(=O)([N-]S(=O)(=O)C(F)(F)F)C(F)(F)F | 0.874 ± 0.056 | 0.918 ± 0.058 | 0.96 ± 0.06 | 1 ± 0.06 | 1.04 ± 0.07 | 1.09 ± 0.07
3 | Cc1ccc(C)cc1 [1,4-dimethylbenzene] + CCCCCCCCCCCCn1cc[n+](C)c1.O=S(=O)([N-]S(=O)(=O)C(F)(F)F)C(F)(F)F | 0.869 ± 0.056 | 0.914 ± 0.058 | 0.958 ± 0.06 | 1 ± 0.06 | 1.05 ± 0.07 | 1.09 ± 0.07
4 | C1COCCO1 [1,4-dioxane] + CCCCCCCCCCCCn1cc[n+](C)c1.O=S(=O)([N-]S(=O)(=O)C(F)(F)F)C(F)(F)F | 0.474 ± 0.037 | 0.499 ± 0.038 | 0.524 ± 0.039 | 0.548 ± 0.04 | 0.572 ± 0.041 | 0.597 ± 0.042
5 | C=CCCCCCCCC [1-decene] + CCCCCCCCCCCCn1cc[n+](C)c1.O=S(=O)([N-]S(=O)(=O)C(F)(F)F)C(F)(F)F | 4.18 ± 0.28 | 4.27 ± 0.29 | 4.36 ± 0.3 | 4.44 ± 0.3 | 4.52 ± 0.31 | 4.6 ± 0.31
6 | C=CCCCCC [1-heptene] + CCCCCCCCCCCCn1cc[n+](C)c1.O=S(=O)([N-]S(=O)(=O)C(F)(F)F)C(F)(F)F | 2.56 ± 0.17 | 2.62 ± 0.18 | 2.68 ± 0.18 | 2.74 ± 0.19 | 2.8 ± 0.19 | 2.85 ± 0.19
7 | C#CCCCCC [1-heptyne] + CCCCCCCCCCCCn1cc[n+](C)c1.O=S(=O)([N-]S(=O)(=O)C(F)(F)F)C(F)(F)F | 1.47 ± 0.1 | 1.53 ± 0.1 | 1.59 ± 0.11 | 1.65 ± 0.11 | 1.7 ± 0.11 | 1.76 ± 0.12
8 | C#CCCCC [1-hexyne] + CCCCCCCCCCCCn1cc[n+](C)c1.O=S(=O)([N-]S(=O)(=O)C(F)(F)F)C(F)(F)F | 1.25 ± 0.08 | 1.3 ± 0.08 | 1.35 ± 0.09 | 1.4 ± 0.09 | 1.45 ± 0.1 | 1.49 ± 0.1
9 | CCC[N+](=O)[O-] [1-nitropropane] + CCCCCCCCCCCCn1cc[n+](C)c1.O=S(=O)([N-]S(=O)(=O)C(F)(F)F)C(F)(F)F | 0.567 ± 0.041 | 0.582 ± 0.041 | 0.596 ± 0.042 | 0.609 ± 0.043 | 0.621 ± 0.043 | 0.634 ± 0.044
10 | C#CCCCCCC [1-octyne] + CCCCCCCCCCCCn1cc[n+](C)c1.O=S(=O)([N-]S(=O)(=O)C(F)(F)F)C(F)(F)F | 1.74 ± 0.12 | 1.8 ± 0.12 | 1.87 ± 0.13 | 1.93 ± 0.13 | 1.99 ± 0.14 | 2.06 ± 0.14
11 | C=CCCC [1-pentene] + CCCCCCCCCCCCn1cc[n+](C)c1.O=S(=O)([N-]S(=O)(=O)C(F)(F)F)C(F)(F)F | 1.82 ± 0.12 | 1.88 ± 0.13 | 1.93 ± 0.13 | 1.99 ± 0.14 | 2.04 ± 0.14 | 2.08 ± 0.14
12 | C#CCCC [1-pentyne] + CCCCCCCCCCCCn1cc[n+](C)c1.O=S(=O)([N-]S(=O)(=O)C(F)(F)F)C(F)(F)F | 1.07 ± 0.07 | 1.11 ± 0.07 | 1.16 ± 0.07 | 1.2 ± 0.08 | 1.24 ± 0.08 | 1.28 ± 0.08
13 | CC(C)CC(C)(C)C [2,2,4-trimethylpentane] + CCCCCCCCCCCCn1cc[n+](C)c1.O=S(=O)([N-]S(=O)(=O)C(F)(F)F)C(F)(F)F | 3.59 ± 0.24 | 3.66 ± 0.25 | 3.72 ± 0.25 | 3.79 ± 0.26 | 3.85 ± 0.26 | 3.91 ± 0.27
14 | CCC(C)(C)C [2,2-dimethylbutane] + CCCCCCCCCCCCn1cc[n+](C)c1.O=S(=O)([N-]S(=O)(=O)C(F)(F)F)C(F)(F)F | 2.83 ± 0.19 | 2.89 ± 0.2 | 2.95 ± 0.2 | 3 ± 0.2 | 3.05 ± 0.21 | 3.1 ± 0.21
15 | CCOC(C)(C)C [2-ethoxy-2-methylpropane] + CCCCCCCCCCCCn1cc[n+](C)c1.O=S(=O)([N-]S(=O)(=O)C(F)(F)F)C(F)(F)F | 1.55 ± 0.1 | 1.62 ± 0.11 | 1.69 ± 0.11 | 1.75 ± 0.12 | 1.82 ± 0.12 | 1.88 ± 0.13
16 | CCC(C)(C)OC [2-methoxy-2-methylbutane] + CCCCCCCCCCCCn1cc[n+](C)c1.O=S(=O)([N-]S(=O)(=O)C(F)(F)F)C(F)(F)F | 1.11 ± 0.07 | 1.17 ± 0.07 | 1.23 ± 0.08 | 1.29 ± 0.08 | 1.35 ± 0.09 | 1.4 ± 0.09

Row | Structure (SMILES) | activity coefficient (318.15 K) | activity coefficient (328.15 K) | activity coefficient (338.15 K) | activity coefficient (348.15 K) | activity coefficient (358.15 K) | activity coefficient (368.15 K)
17 | COC(C)(C)C [2-methoxy-2-methylpropane] + CCCCCCCCCCCCn1cc[n+](C)c1.O=S(=O)([N-]S(=O)(=O)C(F)(F)F)C(F)(F)F | 0.93 ± 0.059 | 0.985 ± 0.062 | 1.04 ± 0.07 | 1.09 ± 0.07 | 1.14 ± 0.07 | 1.2 ± 0.08
18 | CC(C)CO [2-methyl-1-propanol] + CCCCCCCCCCCCn1cc[n+](C)c1.O=S(=O)([N-]S(=O)(=O)C(F)(F)F)C(F)(F)F | 1.52 ± 0.1 | 1.42 ± 0.09 | 1.34 ± 0.09 | 1.26 ± 0.08 | 1.19 ± 0.08 | 1.13 ± 0.07
19 | CC(C)(C)O [2-methylpropan-2-ol] + CCCCCCCCCCCCn1cc[n+](C)c1.O=S(=O)([N-]S(=O)(=O)C(F)(F)F)C(F)(F)F | 1.12 ± 0.07 | 1.08 ± 0.07 | 1.04 ± 0.07 | 0.998 ± 0.062 | 0.964 ± 0.061 | 0.933 ± 0.059
20 | CCC(C)CC [3-methylpentane] + CCCCCCCCCCCCn1cc[n+](C)c1.O=S(=O)([N-]S(=O)(=O)C(F)(F)F)C(F)(F)F | 2.77 ± 0.19 | 2.83 ± 0.19 | 2.89 ± 0.2 | 2.94 ± 0.2 | 2.99 ± 0.2 | 3.04 ± 0.21
21 | C=C(C)c1ccccc1 [(1-methylethenyl)benzene] + CCCCCCCCCCCCn1cc[n+](C)c1.O=S(=O)([N-]S(=O)(=O)C(F)(F)F)C(F)(F)F | 0.79 ± 0.05 | 0.842 ± 0.054 | 0.896 ± 0.057 | 0.949 ± 0.06 | 1 ± 0.06 | 1.05 ± 0.07
22 | CC(C)=O [acetone] + CCCCCCCCCCCCn1cc[n+](C)c1.O=S(=O)([N-]S(=O)(=O)C(F)(F)F)C(F)(F)F | 0.353 ± 0.032 | 0.369 ± 0.033 | 0.386 ± 0.033 | 0.401 ± 0.034 | 0.417 ± 0.035 | 0.432 ± 0.035
23 | CC#N [acetonitrile] + CCCCCCCCCCCCn1cc[n+](C)c1.O=S(=O)([N-]S(=O)(=O)C(F)(F)F)C(F)(F)F | 0.508 ± 0.038 | 0.515 ± 0.038 | 0.524 ± 0.039 | 0.531 ± 0.039 | 0.539 ± 0.039 | 0.545 ± 0.04
24 | c1ccccc1 [benzene] + CCCCCCCCCCCCn1cc[n+](C)c1.O=S(=O)([N-]S(=O)(=O)C(F)(F)F)C(F)(F)F | 0.568 ± 0.041 | 0.594 ± 0.042 | 0.619 ± 0.043 | 0.644 ± 0.044 | 0.669 ± 0.045 | 0.694 ± 0.047
25 | CCCCO [butan-1-ol] + CCCCCCCCCCCCn1cc[n+](C)c1.O=S(=O)([N-]S(=O)(=O)C(F)(F)F)C(F)(F)F | 1.55 ± 0.1 | 1.46 ± 0.1 | 1.38 ± 0.09 | 1.31 ± 0.09 | 1.24 ± 0.08 | 1.19 ± 0.08
26 | CCC(C)O (stereo unspecified) [butan-2-ol] + CCCCCCCCCCCCn1cc[n+](C)c1.O=S(=O)([N-]S(=O)(=O)C(F)(F)F)C(F)(F)F | 1.29 ± 0.08 | 1.23 ± 0.08 | 1.18 ± 0.08 | 1.13 ± 0.07 | 1.09 ± 0.07 | 1.05 ± 0.07
27 | CCCC=O [butanal] + CCCCCCCCCCCCn1cc[n+](C)c1.O=S(=O)([N-]S(=O)(=O)C(F)(F)F)C(F)(F)F | 0.464 ± 0.036 | 0.486 ± 0.037 | 0.51 ± 0.038 | 0.531 ± 0.039 | 0.554 ± 0.04 | 0.575 ± 0.041
28 | C1CCCCCC1 [cycloheptane] + CCCCCCCCCCCCn1cc[n+](C)c1.O=S(=O)([N-]S(=O)(=O)C(F)(F)F)C(F)(F)F | 2.43 ± 0.17 | 2.45 ± 0.17 | 2.47 ± 0.17 | 2.49 ± 0.17 | 2.5 ± 0.17 | 2.52 ± 0.17
29 | C1CCCCC1 [cyclohexane] + CCCCCCCCCCCCn1cc[n+](C)c1.O=S(=O)([N-]S(=O)(=O)C(F)(F)F)C(F)(F)F | 2.14 ± 0.15 | 2.15 ± 0.15 | 2.17 ± 0.15 | 2.18 ± 0.15 | 2.19 ± 0.15 | 2.21 ± 0.15
30 | C1=CCCCC1 [cyclohexene] + CCCCCCCCCCCCn1cc[n+](C)c1.O=S(=O)([N-]S(=O)(=O)C(F)(F)F)C(F)(F)F | 1.56 ± 0.1 | 1.59 ± 0.11 | 1.62 ± 0.11 | 1.65 ± 0.11 | 1.68 ± 0.11 | 1.71 ± 0.11
31 | C1CCCCCCC1 [cyclooctane] + CCCCCCCCCCCCn1cc[n+](C)c1.O=S(=O)([N-]S(=O)(=O)C(F)(F)F)C(F)(F)F | 2.8 ± 0.19 | 2.82 ± 0.19 | 2.83 ± 0.19 | 2.84 ± 0.19 | 2.85 ± 0.19 | 2.86 ± 0.19
